In US8067454B2, “Thio-substituted Anthra [1, 2-d] imidazole- 6, 11-dione derivatives, preparation method and application thereof” (National Defense Medical Center, priority 2010, dated 2011):

Legend:
[1] = test system: MALME-3M; assay: NCI 60-cell drug screen, Melanoma MALME-3M; assay type: cell-based, human; conditions: 1.00E−5 Molar
[2] = test system: SK-MEL-2; assay: NCI 60-cell drug screen, Melanoma SK-MEL-2; assay type: cell-based, human; conditions: 1.00E−5 Molar
[3] = test system: HCC-2998; assay: NCI 60-cell drug screen, Colon Cancer HCC-2998; assay type: cell-based, human; conditions: 1.00E−5 Molar
[4] = test system: NCI-H226; assay: NCI 60-cell drug screen, Non-Small Cell Lung Cancer NCI-H226; assay type: cell-based, human; conditions: 1.00E−5 Molar
[5] = test system: COLO 205; assay: NCI 60-cell drug screen, Colon Cancer COLO 205; assay type: cell-based, human; conditions: 1.00E−5 Molar
[6] = test system: OVCAR-4; assay: NCI 60-cell drug screen, Ovarian Cancer OVCAR-4; assay type: cell-based, human; conditions: 1.00E−5 Molar
[7] = test system: SF-539; assay: NCI 60-cell drug screen, CNS Cancer SF-539; assay type: cell-based, human; conditions: 1.00E−5 Molar
[8] = test system: HL-60(TB); assay: NCI 60-cell drug screen, Leukemia HL-60(TB); assay type: cell-based, human; conditions: 1.00E−5 Molar
[9] = test system: U251; assay: NCI 60-cell drug screen, CNS Cancer U251; assay type: cell-based, human; conditions: 1.00E−5 Molar
[10] = test system: CCRF-CEM; assay: NCI 60-cell drug screen, Leukemia CCRF-CEM; assay type: cell-based, human; conditions: 1.00E−5 Molar
[11] = test system: HCT-15; assay: NCI 60-cell drug screen, Colon Cancer HCT-15; assay type: cell-based, human; conditions: 1.00E−5 Molar
[12] = test system: SNB-75; assay: NCI 60-cell drug screen, CNS Cancer SNB-75; assay type: cell-based, human; conditions: 1.00E−5 Molar
[13] = test system: BT-549; assay: NCI 60-cell drug screen, Breast Cancer BT-549; assay type: cell-based, human; conditions: 1.00E−5 Molar
[14] = test system: TK-10; assay: NCI 60-cell drug screen, Renal Cancer TK-10; assay type: cell-based, human; conditions: 1.00E−5 Molar
[15] = test system: NCI-H23; assay: NCI 60-cell drug screen, Non-Small Cell Lung Cancer NCI-H23; assay type: cell-based, human; conditions: 1.00E−5 Molar
[16] = test system: EKVX; assay: NCI 60-cell drug screen, Non-Small Cell Lung Cancer EKVX; assay type: cell-based, human; conditions: 1.00E−5 Molar
[17] = test system: RPMI-8226; assay: NCI 60-cell drug screen, Leukemia RPMI-8226; assay type: cell-based, human; conditions: 1.00E−5 Molar
[18] = test system: K-562; assay: NCI 60-cell drug screen, Leukemia K-562; assay type: cell-based, human; conditions: 1.00E−5 Molar
[19] = test system: SK-OV-3; assay: NCI 60-cell drug screen, Ovarian Cancer SK-OV-3; assay type: cell-based, human; conditions: 1.00E−5 Molar
[20] = test system: MCF7; assay: NCI 60-cell drug screen, Breast Cancer MCF7; assay type: cell-based, human; conditions: 1.00E−5 Molar
[21] = test system: SVG p12; assay: MTT assay, SVG p12 normal cell; conditions: concentration 10 μM, normal cell
[22] = test system: SR; assay: NCI 60-cell drug screen, Leukemia SR; assay type: cell-based, human; conditions: 1.00E−5 Molar
[23] = test system: UACC-62; assay: NCI 60-cell drug screen, Melanoma UACC-62; assay type: cell-based, human; conditions: 1.00E−5 Molar
[24] = test system: GBM8401; assay: MTT assay, GBM8401 tumor cell; conditions: concentration 10 μM, tumor cell
[25] = test system: KM12; assay: NCI 60-cell drug screen, Colon Cancer KM12; assay type: cell-based, human; conditions: 1.00E−5 Molar
[26] = test system: A498; assay: NCI 60-cell drug screen, Renal Cancer A498; assay type: cell-based, human; conditions: 1.00E−5 Molar
[27] = test system: SF-295; assay: NCI 60-cell drug screen, CNS Cancer SF-295; assay type: cell-based, human; conditions: 1.00E−5 Molar
[28] = test system: M14; assay: NCI 60-cell drug screen, Melanoma M14; assay type: cell-based, human; conditions: 1.00E−5 Molar
[29] = test system: SNB-19; assay: NCI 60-cell drug screen, CNS Cancer SNB-19; assay type: cell-based, human; conditions: 1.00E−5 Molar
[30] = test system: NCI-H460; assay: NCI 60-cell drug screen, Non-Small Cell Lung Cancer NCI-H460; assay type: cell-based, human; conditions: 1.00E−5 Molar
[31] = test system: GBM8901; assay: MTT assay, GBM8901 tumor cell; conditions: concentration 10 μM, tumor cell
[32] = test system: SK-MEL-5; assay: NCI 60-cell drug screen, Melanoma SK-MEL-5; assay type: cell-based, human; conditions: 1.00E−5 Molar
[33] = test system: OVCAR-5; assay: NCI 60-cell drug screen, Ovarian Cancer OVCAR-5; assay type: cell-based, human; conditions: 1.00E−5 Molar
[34] = test system: PC-3; assay: NCI 60-cell drug screen, Prostate Cancer PC-3; assay type: cell-based, human; conditions: 1.00E−5 Molar
[35] = test system: IGROV1; assay: NCI 60-cell drug screen, Ovarian Cancer IGROV1; assay type: cell-based, human; conditions: 1.00E−5 Molar
[36] = test system: ACHN; assay: NCI 60-cell drug screen, Renal Cancer ACHN; assay type: cell-based, human; conditions: 1.00E−5 Molar
[37] = test system: 786-0; assay: NCI 60-cell drug screen, Renal Cancer 786-0; assay type: cell-based, human; conditions: 1.00E−5 Molar
[38] = test system: A549/ATCC; assay: NCI 60-cell drug screen, Non-Small Cell Lung Cancer A549/ATCC; assay type: cell-based, human; conditions: 1.00E−5 Molar
[39] = test system: OVCAR-8; assay: NCI 60-cell drug screen, Ovarian Cancer OVCAR-8; assay type: cell-based, human; conditions: 1.00E−5 Molar
[40] = test system: LOX IMVI; assay: NCI 60-cell drug screen, Melanoma LOX IMVI; assay type: cell-based, human; conditions: 1.00E−5 Molar
[41] = test system: HCT-116; assay: NCI 60-cell drug screen, Colon Cancer HCT-116; assay type: cell-based, human; conditions: 1.00E−5 Molar
[42] = test system: 60 kinds of different human cancer cells; assay: NCI 60-cell drug screen, whole panel (One Dose Mean Graph); assay type: cell-based; conditions: mean over the cell lines of the panel; 1.00E−5 Molar
[43] = test system: T-47D; assay: NCI 60-cell drug screen, Breast Cancer T-47D; assay type: cell-based, human; conditions: 1.00E−5 Molar
[44] = test system: MOLT-4; assay: NCI 60-cell drug screen, Leukemia MOLT-4; assay type: cell-based, human; conditions: 1.00E−5 Molar
[45] = test system: NCI-H322M; assay: NCI 60-cell drug screen, Non-Small Cell Lung Cancer NCI-H322M; assay type: cell-based, human; conditions: 1.00E−5 Molar
[46] = test system: HOP-62; assay: NCI 60-cell drug screen, Non-Small Cell Lung Cancer HOP-62; assay type: cell-based, human; conditions: 1.00E−5 Molar
[47] = test system: MDA-MB-231/ATCC; assay: NCI 60-cell drug screen, Breast Cancer MDA-MB-231/ATCC; assay type: cell-based, human; conditions: 1.00E−5 Molar
[48] = test system: SW-620; assay: NCI 60-cell drug screen, Colon Cancer SW-620; assay type: cell-based, human; conditions: 1.00E−5 Molar
[49] = test system: SK-MEL-28; assay: NCI 60-cell drug screen, Melanoma SK-MEL-28; assay type: cell-based, human; conditions: 1.00E−5 Molar
[50] = test system: RXF 393; assay: NCI 60-cell drug screen, Renal Cancer RXF 393; assay type: cell-based, human; conditions: 1.00E−5 Molar
[51] = test system: NCI-H522; assay: NCI 60-cell drug screen, Non-Small Cell Lung Cancer NCI-H522; assay type: cell-based, human; conditions: 1.00E−5 Molar
[52] = test system: UO-31; assay: NCI 60-cell drug screen, Renal Cancer UO-31; assay type: cell-based, human; conditions: 1.00E−5 Molar

What does the source list for O=C1c2ccccc2C(=O)c2c1ccc1nc(S)[nH]c21 [f1-0, 2-Mercapto-1(3)H-anthra[1,2-d]imidazole-6,11-dione]?
Growth Percent, MALME-3M [1]: 87.50%; Growth Percent, SK-MEL-2 [2]: 134.35%; Growth Percent, HCC-2998 [3]: 113.65%; Growth Percent, NCI-H226 [4]: 83.74%; Growth Percent, COLO 205 [5]: 103.96%; Growth Percent, OVCAR-4 [6]: 91.57%; Growth Percent, SF-539 [7]: 91.35%; Growth Percent, HL-60(TB) [8]: 97.58%; Growth Percent, U251 [9]: 88.79%; Growth Percent, CCRF-CEM [10]: 61.91%; Growth Percent, HCT-15 [11]: 83.78%; Growth Percent, SNB-75 [12]: 100.90%; Growth Percent, BT-549 [13]: 114.30%; Growth Percent, TK-10 [14]: 111.74%; Growth Percent, NCI-H23 [15]: 113.34%; Growth Percent, EKVX [16]: 50.53%; Growth Percent, RPMI-8226 [17]: 101.22%; Growth Percent, K-562 [18]: 108.55%; Growth Percent, SK-OV-3 [19]: 103.17%; Growth Percent, MCF7 [20]: 75.91%; Cell survival rate (%) SVG p12 [21]: 82 ± 5%; Growth Percent, SR [22]: 124.87%; Growth Percent, UACC-62 [23]: 84.17%; Cell survival rate (%) GBM8401 [24]: 86 ± 25%; Growth Percent, KM12 [25]: 101.59%; Growth Percent, A498 [26]: 94.31%; Growth Percent, SF-295 [27]: 118.09%; Growth Percent, M14 [28]: 101.06%; Growth Percent, SNB-19 [29]: 91.30%; Growth Percent, NCI-H460 [30]: 98.61%; Cell survival rate (%) GBM8901 [31]: 78 ± 13%; Growth Percent, SK-MEL-5 [32]: 86.66%; Growth Percent, OVCAR-5 [33]: 129.22%; Growth Percent, PC-3 [34]: 78.80%; Growth Percent, IGROV1 [35]: 138.25%; Growth Percent, ACHN [36]: 96.23%; Growth Percent, 786-0 [37]: 95.78%; Growth Percent, A549/ATCC [38]: 118.18%; Growth Percent, OVCAR-8 [39]: 139.75%; Growth Percent, LOX IMVI [40]: 84.00%; Growth Percent, HCT-116 [41]: 96.31%; Growth Percent, Mean [42]: 99.72%; Growth Percent, T-47D [43]: 81.86%; Growth Percent, MOLT-4 [44]: 108.60%; Growth Percent, NCI-H322M [45]: 96.31%; Growth Percent, HOP-62 [46]: 96.74%; Growth Percent, MDA-MB-231/ATCC [47]: 108.18%; Growth Percent, SW-620 [48]: 97.56%; Growth Percent, SK-MEL-28 [49]: 118.39%; Growth Percent, RXF 393 [50]: 141.66%; Growth Percent, NCI-H522 [51]: 96.06%; Growth Percent, UO-31 [52]: 97.83%
